# Values joined by “and” are separate entries in the source; they are usually repeats but may differ in a detail not shown here. Identical values can stand only once. “Also recorded” adds a separate entry of the source. Like-named read-outs stand apart in the source and are kept apart here.
# Experiments:
# [1] = Stability and formation of treprostinil in human cryopreserved hepatocytes
# Experimental: (§1) Mixed-gender human cryopreserved hepatocytes, male Sprague-Dawley rat cryopreserved hepatocytes, and male Beagle dog cryopreserved hepatocytes were purchased from XenoTech. The hepatocytes were thawed and prepared according to the vendor's instructions, pooled into Krebs Henseleit buffer (KHB, pH 7.4), and kept on ice prior to the experiments. […] The final DMSO content in the incubation mixture was ≤0.1%. […] Aliquots of the test article were withdrawn (n=1) at 0, 15, 30, 60, and 120 minutes. […] Aliquots of 7-HC were withdrawn (n=1) at 0 and 15 minutes. The reaction was immediately terminated by adding two volumes of ice-cold acetonitrile (ACN) to the test article samples and three volumes of ACN containing internal standard to the positive control samples.
# [2] = Stability and formation of treprostinil in rat cryopreserved hepatocytes
# Experimental: as §1
# [3] = Stability and formation of treprostinil in dog cryopreserved hepatocytes
# Experimental: as §1
# [4] = Clinical signs and mortality after single oral gavage or IV bolus dose in rats; assay type: in vivo
# Experimental: Animals received a single dose via oral gavage or intravenous (bolus) injection. The following parameters and end points were evaluated in this study: clinical signs and pharmacokinetic parameters. Single males in the oral 50 mg/kg prodrugs XVII and VI group were found dead on Day 2. No macroscopic findings were noted. All other animals survived to the scheduled euthanasia.
# Animals were not removed from the cage during observations, unless necessary for identification or confirmation of possible findings.
# The animals were removed from the cage, and a detailed clinical observation was performed on the day of animal selection. Cage side observations were performed at 1 to 2 hours post dose. Animals were weighed individually following receipt, on the day of randomization, and on each day of dosing (prior to dosing). Individual body weights are presented below.
# All surviving animals were euthanized and discarded. A necropsy was conducted for animals that died on study, and specified tissues were saved.
# [5] = for Dose proportionality of mean treprostinil Cmax and AUC0-24hr: PO 1 to 50 mg/kg prodrug
# [6] = target: T1, prostaglandin I2 (PGI2) receptor (IP) (Homo sapiens, UniProt P43119); test: IP receptor cAMP assay (agonist mode); assay type: cell-based; conditions: Table 20; agonist mode; NC = too inactive to realistically calculate; * partial agonists or odd dose-response curves
# T1 construct: expressed in transfected cells; host or cells: CHO-K1
# Experimental: (§2) Assay Buffer: • EP1 Calcium and DP1 cAMP Assays: HBSS plus 20 mM HEPES • EP2 and IP1 cAMP Assays: 1 mM IBMX in HBSS plus 20 mM HEPES
# (§3) Cells were thawed from frozen cells and resuspended in assay buffer at desired concentrations. cAMP or Calcium assays were performed according to the manufacturer's protocol using Multiscreen™ TR-FRET cAMP 1.0 No Wash Assay Kit or Multiscreen™ Calcium 1.0 No Wash Kit.
# (§4) Gas Cyclic AMP (cAMP) Assay: In agonist mode testing, cells were seeded in a 384-well plate at an appropriate density and then were treated with compounds and incubated at 37° C. for 20 minutes. The reaction was terminated by sequentially adding sequentially adding trFluor™ Eu-labeled cAMP and trFluor™ 650-labeled anti-cAMP antibody in lysis buffer. […] All testing wells contained 0.1% DMSO in the final concentrations.
# (§5) Data in graphs are represented in Mean±SD. Dose-dependent responses were fitted with sigmoidal dose-response curves allowing variable slopes using GraphPad Prism version 6 (Graphpad Prism).
# (§6) These studies used cell lines overexpressing either human IP, EP2 or DP1, or EP1 receptors, and following incubation with varying concentrations of compounds, cAMP levels were measured using Fluorescence Resonance Energy Transfer (FRET).
# [7] = target: T2, prostaglandin D2 (PGD2) receptor 1 (DP1) (Homo sapiens, UniProt Q13258); test: DP1 receptor cAMP assay (agonist mode); assay type: cell-based
# T2 construct: expressed in transfected cells; host or cells: HEK293T
# T2 sequence (Q13258 1-359): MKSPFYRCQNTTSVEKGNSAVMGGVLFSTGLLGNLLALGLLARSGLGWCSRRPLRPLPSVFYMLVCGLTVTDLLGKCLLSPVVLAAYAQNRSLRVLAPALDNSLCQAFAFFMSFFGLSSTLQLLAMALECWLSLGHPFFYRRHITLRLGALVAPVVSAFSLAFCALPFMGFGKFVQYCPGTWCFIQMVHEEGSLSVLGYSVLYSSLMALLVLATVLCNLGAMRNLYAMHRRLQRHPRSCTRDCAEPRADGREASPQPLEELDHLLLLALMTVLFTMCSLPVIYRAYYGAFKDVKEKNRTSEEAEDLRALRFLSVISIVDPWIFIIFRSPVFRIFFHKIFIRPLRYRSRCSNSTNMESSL
# Experimental: as §2, §3, §4, §5, §6
# [8] = both, human, 15 min, 100 μM, pH 7.4
# [9] = male, Sprague-Dawley, rat, 15 min, 100 μM, pH 7.4
# [10] = male, Beagle, dog, 15 min, 100 μM, pH 7.4
# [11] = single IV bolus 1 mg/kg, male Crl:CD(SD) rats
# [12] = single oral 50 mg/kg, male Crl:CD(SD) rats
# [13] = single oral 50 mg/kg, male Crl:CD(SD) rats, 50 mg/kg
# [14] = treprostinil in plasma, single IV bolus 1 mg/kg prodrug, male rats
# [15] = treprostinil in plasma, single PO 1 mg/kg prodrug, male rats
# [16] = parent prodrug in plasma, single IV bolus 1 mg/kg, male rats
# [17] = parent prodrug in plasma, single PO 1, 10 and 50 mg/kg (all PO groups), male rats
# [18] = parent prodrug in plasma, single PO or IV bolus, male rats
# [19] = treprostinil in plasma, male rats
# [20] = treprostinil in plasma, single IV bolus 1 mg/kg prodrug, individual animals, male rats
# [21] = treprostinil in plasma, single PO 10 mg/kg prodrug, male rats
# T1 sequence (P43119 whole entry): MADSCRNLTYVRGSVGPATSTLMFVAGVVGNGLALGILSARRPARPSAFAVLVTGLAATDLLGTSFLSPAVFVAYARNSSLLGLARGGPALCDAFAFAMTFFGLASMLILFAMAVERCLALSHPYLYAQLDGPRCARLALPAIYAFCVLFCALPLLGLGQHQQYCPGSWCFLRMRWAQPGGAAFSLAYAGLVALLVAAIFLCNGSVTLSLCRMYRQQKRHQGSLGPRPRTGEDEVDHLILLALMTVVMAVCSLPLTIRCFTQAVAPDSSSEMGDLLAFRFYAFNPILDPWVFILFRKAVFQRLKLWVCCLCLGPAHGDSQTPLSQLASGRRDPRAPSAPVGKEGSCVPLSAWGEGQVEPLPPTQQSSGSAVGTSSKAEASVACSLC
smiles,measurement,setting,value
"O=c1ccc2ccc(O)cc2o1 [7-hydroxycoumarin, reference compound]",Formation Rate of 7-HC-G (glucuronide),[1]; [8],97.7 pmol/min/10^6 cells
same,Formation Rate of 7-HC-S (sulfate),[1]; [8],10.8 pmol/min/10^6 cells
same,Formation Rate of 7-HC-G (glucuronide),[2]; [9],91.4 pmol/min/10^6 cells
same,Formation Rate of 7-HC-S (sulfate),[2]; [9],24.7 pmol/min/10^6 cells
same,Formation Rate of 7-HC-G (glucuronide),[3]; [10],114 pmol/min/10^6 cells
same,Formation Rate of 7-HC-S (sulfate),[3]; [10],35.9 pmol/min/10^6 cells
CCCCC[C@@H](CC[C@@H]1[C@H]2Cc3cccc(OCC(=O)O)c3C[C@H]2C[C@H]1O)OC(=O)OC [Prodrug IV],Test article-related (adverse) clinical observations,"[4]; rat, in vivo, iv, 1 mg/kg",adverse clinical observations
same,Test article-related (adverse) clinical observations,"[4]; rat, in vivo, po, 50 mg/kg",adverse clinical observations
same,Dose proportionality of mean prodrug Cmax,"[5]; parent prodrug, PO 10 to 50 mg/kg, male rats",approximately dose proportional manner
same,"PO bioavailability (% F) of prodrug, based on mean AUCall/Dose","[5]; rat, in vivo",1.04%
same,Individual AUCINF of prodrug,"[5]; rat, in vivo, iv, 1 mg/kg",41.5 to 144 ng·h/mL
same,Individual C0 of prodrug,"[5]; rat, in vivo, iv, 1 mg/kg",65.6 to 759 ng/mL
same,Individual Cl of prodrug,"[5]; rat, in vivo, iv, 1 mg/kg",115.7 to 401.67 mL/min/kg
same,Individual T1/2 of prodrug,"[5]; rat, in vivo, iv, 1 mg/kg",5.46 to 16.6 min
same,Individual Vz of prodrug,"[5]; rat, in vivo, iv, 1 mg/kg",2.69 to 3.61 L/kg
same,Mean AUC0-12hr of prodrug,"[5]; rat, in vivo, iv, 1 mg/kg",94.4 ng·h/mL
same,Mean AUCINF of prodrug,"[5]; rat, in vivo, iv, 1 mg/kg",98.7 ng·h/mL
same,Mean C0 of prodrug,"[5]; rat, in vivo, iv, 1 mg/kg",324 ng/mL
same,Mean Cl of prodrug,"[5]; rat, in vivo, iv, 1 mg/kg",223.33 mL/min/kg
same,Mean T1/2 of prodrug,"[5]; rat, in vivo, iv, 1 mg/kg",0.212 h
same,Mean Vz of prodrug,"[5]; rat, in vivo, iv, 1 mg/kg",3.15 L/kg
same,Prodrug quantifiable up to (time postdose),"[5]; rat, in vivo, iv, 1 mg/kg",1 or 2 hours
same,Prodrug quantifiable up to (time postdose),"[5]; rat, in vivo, po, 10 mg/kg",1 h
same,AUCINF of prodrug (single animal),"[5]; rat, in vivo, po, 50 mg/kg",65.4 ng·h/mL
same,Cl/F of prodrug (single animal),"[5]; rat, in vivo, po, 50 mg/kg",12733.3 mL/min/kg
same,Individual AUC0-24hr of prodrug,"[5]; rat, in vivo, po, 50 mg/kg",49.2 ng·h/mL
same,Prodrug quantifiable up to (time postdose),"[5]; rat, in vivo, po, 50 mg/kg","1, 2, 8, or 12 hours"
same,T1/2 of prodrug (single animal),"[5]; rat, in vivo, po, 50 mg/kg",4.27 h
same,Vz/F of prodrug (single animal),"[5]; rat, in vivo, po, 50 mg/kg",4710 L/kg
"CCCCC[C@H](O)CC[C@@H]1[C@H]2Cc3cccc(OCC(=O)O)c3C[C@H]2C[C@H]1OC [Prodrug LXIII, treprostinil cyclopentyl methyl ether]","EC50 Fold Different from Treprostinil, IP Receptor",[6],208x
same,"EC50 Fold Different from Treprostinil, DP1 Receptor","[7]; Table 20, agonist mode, NC = too inactive to realistically calculate, * partial agonists or odd dose-response curves",217x*
"CCCCC[C@@H](CC[C@@H]1[C@H]2Cc3cccc(OCC(=O)O)c3C[C@H]2C[C@H]1O)OP(=O)(O)O [Prodrug VI, treprostinil side chain phosphate]",Test article-related (adverse) clinical observations,[4]; [11],adverse clinical observations
same,Test article-related (adverse) clinical observations,[4]; [12],adverse clinical observations
same,Mortality,[4]; [13],found dead; also recorded: lethality
same,"Treprostinil Concentration, 0 min",[1],0 µM
same,"Treprostinil Concentration, 15 min",[1],0.223 µM
same,"Treprostinil Concentration, 30 min",[1],0.365 µM
same,"Treprostinil Concentration, 60 min",[1],0.466 µM
same,"Treprostinil Concentration, 120 min",[1],0.540 µM
same,"Treprostinil Concentration, 0 min",[2],0.128 µM
same,"Treprostinil Concentration, 15 min",[2],0.693 µM
same,"Treprostinil Concentration, 30 min",[2],0.635 µM
same,"Treprostinil Concentration, 60 min",[2],0.564 µM
same,"Treprostinil Concentration, 120 min",[2],0.53 µM
same,"Treprostinil Concentration, 0 min",[3],0.0124 µM
same,"Treprostinil Concentration, 15 min",[3],0.581 µM
same,"Treprostinil Concentration, 30 min",[3],0.609 µM
same,"Treprostinil Concentration, 60 min",[3],0.533 µM
same,"Treprostinil Concentration, 120 min",[3],0.548 µM
same,"Activity, DP1 Relative to Tre","[7]; Table 24, relative to treprostinil EC50 values, * partial agonists or ambiguous dose-response curves, image character = too high to realistically calculate",2x
same,T1/2 of prodrug (single animal),"[5]; parent prodrug, single PO 50 mg/kg, single animal, male rats",1.76 h
same,Prodrug plasma concentrations,"[5]; rat, in vivo, iv, 1 mg/kg",BLQ
same,Prodrug plasma concentrations (BQL),"[5]; rat, in vivo, iv, 1 mg/kg",< 1.00 ng/mL
same,Prodrug plasma concentrations,"[5]; rat, in vivo, po, 1 mg/kg",BLQ
same,Prodrug plasma concentrations,"[5]; rat, in vivo, po, 10 mg/kg",BLQ
same,AUCINF of prodrug (single animal),"[5]; rat, in vivo, po, 50 mg/kg",28.2 ng·h/mL
same,Mean AUC0-24hr of prodrug,"[5]; rat, in vivo, po, 50 mg/kg",242 ng·h/mL
same,Prodrug quantifiable up to (time postdose),"[5]; rat, in vivo, po, 50 mg/kg","2, 4, 8, or 24 hours"
same,Mean T1/2 of treprostinil,[5]; [14],1.90 h
same,Mean Cl/F of treprostinil,[5]; [15],448.33 mL/min/kg
same,Mean T1/2 of treprostinil,[5]; [15],14.0 h
"CCCCC[C@@H](CC[C@@H]1[C@H]2Cc3cccc(OCC(=O)O)c3C[C@H]2C[C@H]1O)OC(=O)OCC [Prodrug XVI, treprostinil side chain ethyl carbonate]",Test article-related (adverse) clinical observations,[4]; [11],adverse clinical observations
same,Mortality,[4]; [12],found dead
same,Test article-related (adverse) clinical observations,[4]; [12],adverse clinical observations
same,Prodrug plasma concentrations,[5]; [16],BLQ
same,Prodrug plasma concentrations,[5]; [17],BLQ
same,Prodrug plasma concentrations (BQL),[5]; [18],< 1.00 ng/mL
same,Dose proportionality of mean treprostinil Cmax and AUC0-24hr,[5]; [19],less than dose proportional manner
same,Individual AUCINF of treprostinil,[5]; [20],183 ng·h/mL
same,Individual Cl of treprostinil,[5]; [20],91.17 mL/min/kg
same,Individual Vz of treprostinil,[5]; [20],5.7 L/kg
same,Individual T1/2 of treprostinil,"[5]; treprostinil in plasma, single IV bolus 1 mg/kg prodrug, individual animals, male rats, 1 mg/kg",0.722 h and 1.10 h
same,Mean AUC0-12hr of treprostinil,[5]; [14],192 ng·h/mL
same,Mean C0 of treprostinil,[5]; [14],549 ng/mL
same,Mean Cmax of treprostinil,[5]; [14],263 ng/mL
same,Mean T1/2 of treprostinil,[5]; [14],0.912 h
same,Treprostinil quantifiable up to (time postdose),[5]; [14],2 h
same,Individual AUC0-12hr of treprostinil,"[5]; treprostinil in plasma, single IV bolus 1 mg/kg prodrug, male rats, 1 mg/kg",171 ng·h/mL and 214 ng·h/mL
same,Treprostinil quantifiable up to (time postdose),[5]; [21],24 h
same,Treprostinil quantifiable up to (time postdose),"[5]; treprostinil in plasma, single PO 50 mg/kg prodrug, male rats",24 h
same,"PO bioavailability (% F) of treprostinil, based on mean AUCall/Dose","[5]; PO 1 mg/kg prodrug vs IV bolus 1 mg/kg prodrug, male rats, 1 mg/kg",5.94% and 7.74%
same,"PO bioavailability (% F) of treprostinil, based on mean AUCall/Dose","[5]; PO 10 mg/kg prodrug vs IV bolus 1 mg/kg prodrug, male rats",6.35% and 3.17%
same,"PO bioavailability (% F) of treprostinil, based on mean AUCall/Dose","[5]; PO 50 mg/kg prodrug vs IV bolus 1 mg/kg prodrug, male rats",4.13% and 3.72%
"CCCCC[C@@H](CC[C@@H]1[C@H]2Cc3cccc(OCC(=O)O)c3C[C@H]2C[C@H]1O)OC(=O)OC(C)C [Prodrug XVII, treprostinil side chain isopropyl carbonate]",Test article-related (adverse) clinical observations,[4]; [11],adverse clinical observations
same,Test article-related (adverse) clinical observations,[4]; [12],adverse clinical observations
same,Mortality,[4]; [13],found dead; also recorded: lethality
same,Prodrug plasma concentrations,[5]; [16],BLQ
same,Prodrug plasma concentrations,[5]; [17],BLQ
same,Prodrug plasma concentrations (BQL),[5]; [18],< 1.00 ng/mL
same,Dose proportionality of mean treprostinil Cmax and AUC0-24hr,[5]; [19],less than dose proportional manner
same,Mean AUC0-12hr of treprostinil,[5]; [14],274 ng·h/mL
same,Mean C0 of treprostinil,[5]; [14],1350 ng/mL
same,Mean Cmax of treprostinil,[5]; [14],466 ng/mL
same,Treprostinil quantifiable up to (time postdose),[5]; [21],24 h
